Reference: ChEMBL document CHEMBL1144330, “Novel pyrazinone mono-amides as potent and reversible caspase-3 inhibitors” (Bioorg Med Chem Lett, 2005)

Legend:
Caspase-1 = target: T1, Caspase-1 (Homo sapiens, UniProt P29466); assay: Inhibitory concentration against recombinant human caspase-1 in neuronal precursor (NT2) cells
T1 sequence (P29466 whole entry): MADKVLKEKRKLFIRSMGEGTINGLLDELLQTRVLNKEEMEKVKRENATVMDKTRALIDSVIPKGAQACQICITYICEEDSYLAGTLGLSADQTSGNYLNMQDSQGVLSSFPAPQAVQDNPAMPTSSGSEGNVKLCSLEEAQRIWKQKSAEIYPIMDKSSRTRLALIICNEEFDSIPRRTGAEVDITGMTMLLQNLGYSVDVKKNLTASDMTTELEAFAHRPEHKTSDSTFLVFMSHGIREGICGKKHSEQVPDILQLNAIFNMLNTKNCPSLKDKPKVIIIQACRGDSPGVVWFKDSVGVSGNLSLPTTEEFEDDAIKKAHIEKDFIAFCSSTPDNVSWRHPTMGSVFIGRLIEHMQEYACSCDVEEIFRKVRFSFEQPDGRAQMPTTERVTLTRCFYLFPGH

Caspase-10 [1] = target: T2, Caspase-10 (Homo sapiens, UniProt Q92851); assay: Inhibitory concentration against caspase-10 in neuronal precursor (NT2) cells
T2 sequence (Q92851 whole entry): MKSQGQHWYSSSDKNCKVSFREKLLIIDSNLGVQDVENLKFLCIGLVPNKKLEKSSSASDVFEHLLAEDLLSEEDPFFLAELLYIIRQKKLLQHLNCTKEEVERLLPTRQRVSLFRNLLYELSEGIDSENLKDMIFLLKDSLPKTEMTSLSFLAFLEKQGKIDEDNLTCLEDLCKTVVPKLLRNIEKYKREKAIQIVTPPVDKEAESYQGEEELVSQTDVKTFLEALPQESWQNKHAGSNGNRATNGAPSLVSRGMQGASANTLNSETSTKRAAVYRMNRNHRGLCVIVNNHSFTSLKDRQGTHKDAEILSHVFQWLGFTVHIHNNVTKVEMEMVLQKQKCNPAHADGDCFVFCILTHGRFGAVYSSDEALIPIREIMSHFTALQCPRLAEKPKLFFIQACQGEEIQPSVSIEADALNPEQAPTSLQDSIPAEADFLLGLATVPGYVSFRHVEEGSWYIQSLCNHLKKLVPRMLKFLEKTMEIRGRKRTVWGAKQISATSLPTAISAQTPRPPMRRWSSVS

Caspase-3 = target: T3, Caspase-3 (Homo sapiens, UniProt P42574); assay: Inhibitory concentration against recombinant human caspase-3 in neuronal precursor (NT2) cells
T3 sequence (P42574 whole entry): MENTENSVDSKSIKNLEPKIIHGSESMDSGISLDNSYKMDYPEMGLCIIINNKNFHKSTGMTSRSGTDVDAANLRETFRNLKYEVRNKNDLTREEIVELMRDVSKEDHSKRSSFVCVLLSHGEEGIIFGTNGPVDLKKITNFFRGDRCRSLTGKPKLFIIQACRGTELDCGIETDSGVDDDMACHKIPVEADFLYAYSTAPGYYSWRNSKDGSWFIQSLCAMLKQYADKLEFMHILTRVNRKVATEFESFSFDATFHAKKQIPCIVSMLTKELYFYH

Caspase-8 = Caspase-8 (Homo sapiens, UniProt Q14790); assay: Inhibitory concentration against recombinant human caspase-8 […]
[2] = Inhibitory concentration against etoposide induced apoptosis in mice cerebellar granule neurons; assay type: functional; settings: Mus musculus
[3] = Inhibitory concentration against cycloheximide induced cell death in human white blood cells in the presence of plasma proteins; assay type: functional, cell-based
Caspase-4 [4] = target: T4, Caspase-4 (Homo sapiens, UniProt P49662); assay: Inhibitory concentration against human caspase-4 in neuronal precursor (NT2) cells
T4 sequence (P49662 whole entry): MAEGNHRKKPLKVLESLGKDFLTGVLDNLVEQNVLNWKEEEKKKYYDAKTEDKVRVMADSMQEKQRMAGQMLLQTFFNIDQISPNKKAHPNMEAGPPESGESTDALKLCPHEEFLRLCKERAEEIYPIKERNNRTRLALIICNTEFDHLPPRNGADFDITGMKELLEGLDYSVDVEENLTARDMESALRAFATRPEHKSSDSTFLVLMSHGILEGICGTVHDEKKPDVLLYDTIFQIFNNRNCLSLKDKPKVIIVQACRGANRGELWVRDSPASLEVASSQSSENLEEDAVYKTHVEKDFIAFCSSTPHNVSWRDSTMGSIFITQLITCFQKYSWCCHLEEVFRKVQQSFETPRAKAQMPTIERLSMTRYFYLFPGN

Caspase-7 = target: T5, Caspase-7 (Homo sapiens, UniProt P55210); assay: Inhibitory concentration against recombinant human caspase-7 […]
T5 sequence (P55210 whole entry): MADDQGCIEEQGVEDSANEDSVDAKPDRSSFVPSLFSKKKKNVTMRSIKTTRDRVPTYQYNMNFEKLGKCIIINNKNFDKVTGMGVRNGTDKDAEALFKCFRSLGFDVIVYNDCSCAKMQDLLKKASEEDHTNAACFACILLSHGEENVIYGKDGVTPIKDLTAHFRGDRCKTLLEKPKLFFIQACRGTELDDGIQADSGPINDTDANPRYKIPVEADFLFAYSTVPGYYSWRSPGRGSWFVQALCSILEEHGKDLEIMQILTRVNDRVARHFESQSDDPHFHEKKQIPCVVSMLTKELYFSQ

[5] = Inhibitory concentration against cycloheximide induced cell death in human white blood cells in the absence of plasma proteins; assay type: functional, cell-based
Caspase-2 [6] = target: T6, Caspase-2 (Homo sapiens, UniProt P42575); assay: Inhibitory concentration against caspase-2 in neuronal precursor (NT2) cells
T6 sequence (P42575 whole entry): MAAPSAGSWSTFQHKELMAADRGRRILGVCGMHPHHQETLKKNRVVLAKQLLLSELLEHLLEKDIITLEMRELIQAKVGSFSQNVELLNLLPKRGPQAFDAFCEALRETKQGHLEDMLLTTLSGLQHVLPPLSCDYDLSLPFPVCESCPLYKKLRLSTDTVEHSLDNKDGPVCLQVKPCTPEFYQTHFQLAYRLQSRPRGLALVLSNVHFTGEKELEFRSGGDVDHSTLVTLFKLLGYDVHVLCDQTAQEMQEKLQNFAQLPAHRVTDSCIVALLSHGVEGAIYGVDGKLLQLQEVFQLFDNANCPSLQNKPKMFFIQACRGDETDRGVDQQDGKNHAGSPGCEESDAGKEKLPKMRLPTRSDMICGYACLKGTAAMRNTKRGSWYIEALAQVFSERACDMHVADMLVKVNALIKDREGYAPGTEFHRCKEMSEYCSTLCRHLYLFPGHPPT

Caspase-6 [7] = target: T7, Caspase-6 (Homo sapiens, UniProt P55212); assay: Inhibitory concentration against caspase-6 in neuronal precursor (NT2) cells
T7 sequence (P55212 whole entry): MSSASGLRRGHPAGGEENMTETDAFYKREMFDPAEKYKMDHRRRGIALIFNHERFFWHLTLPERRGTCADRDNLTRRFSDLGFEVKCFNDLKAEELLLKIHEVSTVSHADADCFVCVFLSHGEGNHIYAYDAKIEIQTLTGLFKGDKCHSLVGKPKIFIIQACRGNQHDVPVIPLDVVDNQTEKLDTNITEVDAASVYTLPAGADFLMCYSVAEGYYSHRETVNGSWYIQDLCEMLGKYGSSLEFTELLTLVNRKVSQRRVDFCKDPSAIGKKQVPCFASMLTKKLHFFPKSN

NT2 = assay: Inhibitory concentration against camptothecin induced apoptosis in neuronal precursor (NT2) whole cells; assay type: functional, cell-based; settings: Homo sapiens
Caspase-5 [8] = target: T8, Caspase-5 (Homo sapiens, UniProt P51878); assay: Inhibitory concentration against human caspase-5 in neuronal precursor (NT2) cells
T8 sequence (P51878 whole entry): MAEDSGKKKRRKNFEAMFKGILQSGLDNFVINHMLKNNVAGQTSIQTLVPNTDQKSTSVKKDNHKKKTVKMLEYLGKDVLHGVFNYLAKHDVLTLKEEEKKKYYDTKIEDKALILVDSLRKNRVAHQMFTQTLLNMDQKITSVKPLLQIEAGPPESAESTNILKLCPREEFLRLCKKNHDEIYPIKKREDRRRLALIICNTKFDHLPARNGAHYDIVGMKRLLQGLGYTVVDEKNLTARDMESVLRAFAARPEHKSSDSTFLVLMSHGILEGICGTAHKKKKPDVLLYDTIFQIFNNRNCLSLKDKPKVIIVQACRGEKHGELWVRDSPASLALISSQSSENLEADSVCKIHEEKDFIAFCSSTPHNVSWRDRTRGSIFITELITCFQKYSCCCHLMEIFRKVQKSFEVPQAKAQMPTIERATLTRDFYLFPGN

[9] = Inhibitory concentration against etoposide induced apoptosis in rat cortical neurons; assay type: functional
Caspase-4 [10] = target: T4, Caspase-4; assay: Inhibitory concentration against casp-4 in neuronal precursor (NT2) cells
Caspase-5 [11] = target: T8, Caspase-5; assay: Inhibitory concentration against casp-5 in neuronal precursor (NT2) cells
Caspase-10 [12] = target: T2, Caspase-10; assay: Inhibitory concentration against casp-10 in neuronal precursor (NT2) cells
Caspase-6 [13] = target: T7, Caspase-6; assay: Inhibitory concentration against casp-6 in neuronal precursor (NT2) cells
Caspase-2 [14] = target: T6, Caspase-2; assay: Inhibitory concentration against casp-2 in neuronal precursor (NT2) cells

Chain of Caspase-8 (Q14790 217-374 limits assumed): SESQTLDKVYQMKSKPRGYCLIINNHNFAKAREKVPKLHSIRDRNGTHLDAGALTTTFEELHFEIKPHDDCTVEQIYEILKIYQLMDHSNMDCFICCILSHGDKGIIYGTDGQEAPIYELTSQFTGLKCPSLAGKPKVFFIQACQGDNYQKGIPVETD
Chain of Caspase-8 (Q14790 385-479 limits assumed): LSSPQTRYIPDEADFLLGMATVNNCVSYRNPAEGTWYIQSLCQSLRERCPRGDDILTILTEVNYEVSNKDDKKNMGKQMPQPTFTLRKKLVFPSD

Row | IC50 (Caspase-1) | IC50 (Caspase-10 [1]) | Ki (Caspase-3) | IC50 (Caspase-8) | IC50 [2] | IC50 (Caspase-4 [4]) | IC50 (Caspase-7) | IC50 (Caspase-2 [6]) | IC50 (Caspase-6 [7]) | IC50 (NT2) | IC50 (Caspase-5 [8]) | IC50 [9] | IC50 (Caspase-4 [10]) | IC50 (Caspase-5 [11]) | IC50 (Caspase-10 [12]) | IC50 (Caspase-6 [13]) | IC50 (Caspase-2 [14]) | Compound | IC50 [3] | IC50 [5]
1 | 50 nM | 17700 nM | 5 nM | 2100 nM | 50 nM | 300 nM | 13 nM | > 10000 nM | 1700 nM | 21 nM | 200 nM | 90 nM |  |  |  |  |  | CCCCCCN(C)CC(=O)C(CC(=O)O)NC(=O)C(CC)n1cc(C(C)(C)C)nc(NCc2nonc2C)c1=O (stereo not drawn) | 1200 nM | 50 nM
2 | 110 nM |  | 1.4 nM | 4030 nM | 60 nM |  | 90 nM |  |  | 27 nM |  | 60 nM | 500 nM | 810 nM | 29500 nM | 3440 nM | > 10000 nM | CCCCCN(C)CC(=O)C(CC(=O)O)NC(=O)C(CC)n1cc(C(C)(C)C)nc(NCc2nonc2C)c1=O (stereo not drawn) | 700 nM | 40 nM
